# Measured values published in ChEMBL document CHEMBL3045144, “Relationship between physicochemical properties and herbicidal activity of 1,2,5-oxadiazole N-oxide derivatives” (Molecules, 2005).
# Columns and labels:
# Triticum aestivum [1] = assay: Pre-emergence herbicidal activity against Triticum aestivum L. (wheat) assessed change in radicular weight; assay type: functional; parameters: concentration or dose not given beside the values
# [2] = Retention factor, logKw of the compound in pure aqueous mobile phases by RP-HPLC method; assay type: physicochemical; conditions: buffer
# Triticum aestivum [3] = assay: Pre-emergence herbicidal activity against Triticum aestivum L. (wheat) assessed change in aerial weight; assay type: functional; parameters: concentration or dose not given beside the values
# Triticum aestivum [4] = assay: Pre-emergence herbicidal activity against Triticum aestivum L. (wheat) assessed change in leaf length; assay type: functional; parameters: concentration or dose not given beside the values
structure (smiles),measurement,setting,value
Cc1c(/C=N/NC(N)=S)no[n+]1[O-],Activity,Triticum aestivum [1],-95%
same,logKw,[2],1.18
[O-][n+]1onc(-c2ccccc2)c1CCl,Activity,Triticum aestivum [1],-7%
same,Activity,Triticum aestivum [3],-4%
same,Activity,Triticum aestivum [4],-0.99%
same,logKw,[2],4.24
Cc1c(C=O)no[n+]1[O-],Activity,Triticum aestivum [1],-5%
same,Activity,Triticum aestivum [3],-5%
same,Activity,Triticum aestivum [4],-1.62%
same,logKw,[2],0.22
[O-][n+]1onc(-c2ccccc2)c1CN1CCN(c2ncccn2)CC1,Activity,Triticum aestivum [1],0%
same,Activity,Triticum aestivum [3],0%
same,Activity,Triticum aestivum [4],-1.22%
COC(=O)N/N=C/c1ccc2nonc2c1,Activity,Triticum aestivum [1],20%
same,Activity,Triticum aestivum [3],35%
same,logKw,[2],2.21
O=C(Nc1ccc(Cl)cc1)c1ccc2c(c1)no[n+]2[O-],Activity,Triticum aestivum [1],-73%
same,Activity,Triticum aestivum [3],-50%
same,Activity,Triticum aestivum [4],-1.43%
O=C(c1ccc2c(c1)no[n+]2[O-])N1CCOCC1,Activity,Triticum aestivum [1],-52%
same,Activity,Triticum aestivum [3],-55%
same,Activity,Triticum aestivum [4],-2.06%
same,logKw,[2],1.27
CCCCNC(=O)c1ccc2c(c1)no[n+]2[O-],Activity,Triticum aestivum [1],-66%
same,Activity,Triticum aestivum [3],-71%
same,Activity,Triticum aestivum [4],-1.54%
same,logKw,[2],2.74
COCCNC(=O)c1ccc2c(c1)no[n+]2[O-],Activity,Triticum aestivum [1],-2%
same,Activity,Triticum aestivum [3],-23%
same,Activity,Triticum aestivum [4],-1.54%
same,logKw,[2],1.46
COC(=O)N/N=C/c1no[n+]([O-])c1C,Activity,Triticum aestivum [1],-50%
same,Activity,Triticum aestivum [3],-50%
same,Activity,Triticum aestivum [4],-2.08%
same,logKw,[2],1.47
COC(=O)N/N=C/c1c(-c2ccccc2)no[n+]1[O-],Activity,Triticum aestivum [1],16%
same,Activity,Triticum aestivum [3],-22%
same,Activity,Triticum aestivum [4],-1.19%
same,logKw,[2],3.34
NC(=S)N/N=C/c1c(-c2ccccc2)no[n+]1[O-],Activity,Triticum aestivum [1],8%
same,Activity,Triticum aestivum [3],-30%
same,Activity,Triticum aestivum [4],-1.03%
same,logKw,[2],3.24
Cc1c(/C=N/NC(=O)NC2CCCCC2)no[n+]1[O-],Activity,Triticum aestivum [1],-85%
same,Activity,Triticum aestivum [3],-50%
same,Activity,Triticum aestivum [4],-1.59%
same,logKw,[2],4.39
Cc1ccc2c(c1)no[n+]2[O-],Activity,Triticum aestivum [1],-58%
same,Activity,Triticum aestivum [3],-58%
same,Activity,Triticum aestivum [4],-2%
same,logKw,[2],2.18
O=Cc1ccc2c(c1)no[n+]2[O-],Activity,Triticum aestivum [1],-5%
same,Activity,Triticum aestivum [3],-30%
same,Activity,Triticum aestivum [4],-0.93%
same,logKw,[2],2.4
O=C(O)c1ccc2c(c1)no[n+]2[O-],Activity,Triticum aestivum [1],-9%
same,Activity,Triticum aestivum [3],-16%
COC(=O)N/N=C\c1ccc2c(c1)no[n+]2[O-],Activity,Triticum aestivum [1],13%
same,Activity,Triticum aestivum [3],-6%
same,Activity,Triticum aestivum [4],-1.17%
same,logKw,[2],2.02
COCCNC(=O)N/N=C\c1ccc2c(c1)no[n+]2[O-],Activity,Triticum aestivum [4],-1.1%
same,logKw,[2],2.31
O=Cc1c(-c2ccccc2)no[n+]1[O-],Activity,Triticum aestivum [1],18%
same,Activity,Triticum aestivum [3],-4%
same,Activity,Triticum aestivum [4],-1.2%
